Values of other authors, collected in US7160060B1, “System and method of remediation of contaminants” (priority 2004, dated 2007).
Where two headings read alike, the source gives them in different places.

[1] = select polycyclic aromatic hydrocarbons (Table 3)
[2] = select chlorinated organics (Table 1)

SMILES	SOLUBILITY IN WATER at 25° C. [1]	SOLUBILITY IN WATER at 25° C. [2]	also measured
c1ccc2cc3ccccc3cc2c1 [Anthracene]	0.075 mg/L		
c1ccc2c(c1)cc1ccc3cccc4ccc2c1c34 [Benzo(a)pyrene]	0.0016 mg/L		
c1cc2ccc3ccc4ccc5cccc6c(c1)c2c3c4c56 [Benzo(g,h,i)perylene]	0.00026 mg/L		
c1ccc2c(c1)ccc1c3ccccc3ccc21 [Chrysene]	0.00189 mg/L		
c1ccc2c(c1)ccc1cc3c(ccc4ccccc43)cc12 [Dibenz(a,h)anthracene]	0.0006 mg/L		
ClC(Cl)=C(Cl)Cl [Perchloroethylene]		150 mg/L	
c1ccc2c(c1)ccc1ccccc12 [Phenanthrene]	1.18 mg/L		
ClC=C(Cl)Cl [Trichloroethylene]		1,280 mg/L	
C=CCl [Vinyl Chloride]		8,800 mg/L	
Cc1ccc(C)cc1 [p-xylene isomer, p-xylene]			SOLUBILITY IN WATER at 25° C. (select volatile organic chemicals (BTEX) (Table 2)): 198 mg/L
